US12071488B2, “Method of sensitizing cancer cells to anti-cancer treatment” (TWO TO BIOTECH LTD., priority 2017, dated 2024)

Tests used:
[1] = test system: human TNBC tumors (MDA-MB-231); assay: Relative tumor volume in nude mice inoculated with TNBC cells; type: in vivo; conditions: MDA-MB-231 tumors; APC1 15 mg/kg, doxorubicin 3 mg/kg once a week; 5 weeks; control increased linearly
Text: To this end, mice were inoculated with TNBC cells as detailed above, briefly 32 nude mice were inoculated subcutaneously with TNBC cells (MDA-MB-231, 8×10^6 cells per mouse).

[2] = test system: human ovarian cancer cells (OV90); assay: Relative tumor volume in nude mice inoculated with human ovarian cancer cells; type: in vivo; conditions: OV90 tumors; APC1 15 mg/kg, doxorubicin 3 mg/kg once a week; 5 weeks; control increased linearly
Method: During the treatment period, each mouse was weighted, and the tumor size was measured by Digital caliper.
When the tumors exceeded a volume of 40 mm^3 or 50 mm^3 (for OV90 and Panc1, respectively), the mice were randomly divided into four groups of 8 mice each, as follows. A control group was treated with saline only, the APC1-treated group was treated three times a week with doses of APC1 at 15 mg/kg each, the doxorubicin and APC treated group was treated twice a week with doses of APC1 (at 15 mg/kg each) and once a week with doxorubicin (at 3 mg/kg) and the doxorubicin-treated group was treated with doxorubicin only, once a week at a dose of 3 mg/kg. These dosing protocols were repeated throughout the experiment, namely for 5 weeks.

tumor = conditions: WO 2009/083968; cited from earlier work
[3] = test system: leukemia and prostate cancer cells; conditions: WO 2009/083968; cited from earlier work

In the case of `COc1cccc2c1C(=O)c1c(O)c3c(c(O)c1C2=O)C[C@@](O)(C(=O)CO)C[C@@H]3O[C@H]1C[C@H](N)[C@H](O)[C@H](C)O1` [doxorubicin, (7S,9S)-7-[(2R,4S,5S,6S)-4-amino-5-hydroxy-6-methyloxan-2-yl]oxy-6,9,11-trihydroxy-9-(2-hydroxyacetyl)-4-methoxy-8,10-dihydro-7H-tetracene-5,12-dione, reference compound], the relative tumor volume [1] is reported as “moderate increase” and the relative tumor volume [2] is reported as “modest increases”.

B1: MPGHSRLLSILVSGLCVVGSSIGVLRRREQAERGSRRCAIAGEERAMLSPSPLPE TPFSPEKGAAFSPIYPRRK (protein, listed as Homo sapiens)
chain: MPGHSRLLSILVSGLCVVGSSIGVLRRREQAERGSRRCAIAGEERAMLSPSPLPETPFSPEKGAAFSPIYPRRK
notes: full length polypeptide of 74 amino acid residues described in WO 2009/083968
For B1, the “tumor growth in mice” value (tumor) is given as “prevention of tumor growth” and the “viability of leukemia and prostate cancer cells” value [3] is given as “decrease in the viability”.
